For experiment [1], the system named is MCF7. Nature of the experiment: Antiproliferative activity against human MCF7 cells by MTT reduction assay. The class given is functional, cell-based.
Experiment [2] concerns K562. Nature of the experiment: Antiproliferative activity against human K562 cells by MTT reduction assay. In kind it is functional, cell-based.
The subject of experiment [3] is HCT-116. Nature of the experiment: Cytotoxicity against human HCT-116 cells. In kind it is functional, cell-based.
A further experiment deals with PC-3. Nature of the experiment: Antiproliferative activity against human PC-3 cells. The class given is functional, cell-based.
The subject of experiment [4] is K562. Nature of the experiment: Antiproliferative activity against human K562 cells. In kind it is functional, cell-based.
Experiment [5] relates to A549. Nature of the experiment: Antiproliferative activity against human A549 cells. In kind it is functional, cell-based.
The next experiment concerns MGC-803. Nature of the experiment: Antiproliferative activity against human MGC-803 cells. The class given is functional, cell-based.
The test system of another experiment is ECa-109 cell line. Nature of the experiment: Antiproliferative activity against human EC109 cells. In kind it is functional, cell-based.
Another experiment deals with SMMC-7721. Nature of the experiment: Antiproliferative activity against human SMMC-7721 cells. The class given is functional, cell-based.
The subject of a further experiment is Ehrlich. Nature of the experiment: Cytotoxicity against mouse EAC cells assessed as reduction in cell viability incubated for 2 hrs by trypan blue staining based microscopic analysis. In kind it is functional.
Experiment [6] concerns Escherichia coli. Nature of the experiment: Antibacterial activity against Escherichia coli assessed as zone of inhibition. The class given is functional.
For experiment [7], the system named is Escherichia coli. Nature of the experiment: Antibacterial activity against Escherichia coli NCIM 2688 measured after 8 hrs. The class given is functional.
For experiment [8], the system named is Pseudomonas aeruginosa. Nature of the experiment: Antibacterial activity against Pseudomonas aeruginosa by disc diffusion method. In kind it is functional. Background: A growth-free zone around the sample is the usual read-out of agar diffusion tests.
For experiment [9], the system named is Escherichia coli. Nature of the experiment: Antibacterial activity against Escherichia coli incubated for 24 to 48 hrs by agar diffusion well method. In kind it is functional. Particulars: time 24-48 hrs.
Another experiment has as its system Streptococcus pneumoniae. Nature of the experiment: Antibacterial activity against Streptococcus pneumoniae incubated for 24 to 48 hrs by agar diffusion well method. The class given is functional. Particulars: time 24-48 hrs.
The subject of experiment [10] is Bacillus subtilis. Nature of the experiment: Antibacterial activity against Bacillus subtilis NCIM 2079 measured after 12 hrs. The class given is functional.
Experiment [11] deals with Bacillus subtilis. Nature of the experiment: Antibacterial activity against Bacillus subtilis by disc diffusion method. In kind it is functional.
Experiment [12] concerns Staphylococcus aureus. Nature of the experiment: Antibacterial activity against Staphylococcus aureus NCIM 2010 measured after 12 hrs. The class given is functional.
The subject of experiment [13] is Escherichia coli. Nature of the experiment: Antibacterial activity against Escherichia coli by disc diffusion method. The class given is functional.
Experiment [14] deals with Pseudomonas aeruginosa. Nature of the experiment: Antibacterial activity against Pseudomonas aeruginosa RCMB 010043 incubated for 24 hrs by agar well diffusion method. In kind it is functional.
Experiment [15] has as its system Staphylococcus aureus. Nature of the experiment: Antibacterial activity against Staphylococcus aureus by disc diffusion method. The class given is functional.
In experiment [16] the test system is Pseudomonas aeruginosa. Nature of the experiment: Antibacterial activity against Pseudomonas aeruginosa NCIM […] measured after 8 hrs. In kind it is functional.
Experiment [17] has as its system Escherichia coli. Nature of the experiment: Antibacterial activity against Escherichia coli RCMB 01100052 incubated for 24 hrs by agar well diffusion method. The class given is functional.
In experiment [18] the test system is Pseudomonas aeruginosa. Nature of the experiment: Antibacterial activity against Pseudomonas aeruginosa incubated for 24 to 48 hrs by agar diffusion well method. In kind it is functional. Particulars: time 24-48 hrs.
The subject of experiment [19] is Staphylococcus aureus. Nature of the experiment: Antibacterial activity against Staphylococcus aureus assessed as zone of inhibition. In kind it is functional.
Experiment [20] deals with Bacillus subtilis. Nature of the experiment: Antibacterial activity against Bacillus subtilis incubated for 24 to 48 hrs by agar diffusion well method. Particulars: time 24-48 hrs. The class given is functional.
Experiment [21] concerns HepG2. Nature of the experiment: cells. In kind it is functional, cell-based. Particulars: Homo sapiens.
For experiment [22], the system named is HCT-116. Nature of the experiment: Antiproliferative activity against human HCT-116 cells. In kind it is functional, cell-based.
Experiment [23] has as its system HeLa. Nature of the experiment: Cytotoxicity against human HeLa cells. In kind it is functional, cell-based.
In experiment [24] the test system is MCF7. Nature of the experiment: Cytotoxicity against human MCF7 cells. In kind it is functional, cell-based.
Experiment [25] deals with A549. Nature of the experiment: Cytotoxicity against human A549 cells. In kind it is functional, cell-based.
Another experiment has as its system SK-OV-3. Nature of the experiment: Antiproliferative activity against human SK-OV-3 cells. In kind it is functional, cell-based.
A further experiment relates to CCRF-CEM. Nature of the experiment: Antiproliferative activity against human CCRF-CEM cells. In kind it is functional, cell-based.
The target of experiment [26] is T1, NAD-dependent protein deacetylase sirtuin-2 (Homo sapiens, UniProt Q8IXJ6).
T1 sequence (Q8IXJ6 whole entry): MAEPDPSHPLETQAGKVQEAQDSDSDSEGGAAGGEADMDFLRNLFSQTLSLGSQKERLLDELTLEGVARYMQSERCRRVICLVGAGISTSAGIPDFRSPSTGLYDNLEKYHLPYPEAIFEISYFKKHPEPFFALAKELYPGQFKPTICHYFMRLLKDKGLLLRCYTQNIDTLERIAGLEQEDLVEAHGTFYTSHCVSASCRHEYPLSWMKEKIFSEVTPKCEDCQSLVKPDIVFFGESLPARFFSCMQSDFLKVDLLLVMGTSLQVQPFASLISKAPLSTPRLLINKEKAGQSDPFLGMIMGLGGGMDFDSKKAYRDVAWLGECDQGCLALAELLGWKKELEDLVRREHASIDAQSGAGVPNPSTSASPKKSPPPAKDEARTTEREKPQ
Nature of the experiment: Inhibition of sirtuin 2 (unknown origin).

In another experiment the test system is MDA-MB-435. Nature of the experiment: Antiproliferative activity against human MDA-MB-435 cells. In kind it is functional, cell-based.
In experiment [27] the test system is HeLa. Nature of the experiment: Growth inhibition of human HeLa cells at 20 micromol relative to control. The class given is functional. Particulars: dose 20 µmol.
The next experiment relates to SK-N-SH. Nature of the experiment: Antiproliferative activity against human SK-N-SH cells by MTT reduction assay. The class given is functional, cell-based.
For a further experiment, the system named is MDA-MB-231. Nature of the experiment: Growth inhibition of human MDA-MB-231 cells at 20 micromol relative to control. In kind it is functional. Particulars: dose 20 µmol.
For experiment [28], the system named is HepG2. Nature of the experiment: Growth inhibition of human HepG2 cells at 20 micromol relative to control. In kind it is functional. Particulars: dose 20 µmol.
A further experiment relates to DU-145. Nature of the experiment: Cytotoxicity against human DU-145 cells incubated for 48 hrs by MTT assay. The class given is functional, cell-based. Particulars: DU-145, 48 h. For orientation: Tetrazolium assays rely on reduction of a dye to a coloured formazan, in cell work by metabolically active cells.
In experiment [29] the test system is HepG2. Nature of the experiment: Antiproliferative activity against human HepG2 cells by MTT reduction assay. In kind it is functional, cell-based.
A short description of a further experiment: cells. In kind it is functional, cell-based. Particulars: Homo sapiens, HCCC9810.
The subject of a further experiment is Huh-7. Nature of the experiment: cells. In kind it is functional, cell-based. Particulars: Homo sapiens.
The nature of experiment [30]: Antiproliferative activity against human U87 cells. The class given is functional, cell-based, U-87MG ATCC. Particulars: U-87 MG.
Experiment [31] relates to MCF7. Nature of the experiment: Antiproliferative activity against human MCF7. The class given is functional, cell-based.
The test system of another experiment is WI-38. Nature of the experiment: Antiproliferative activity against human WI-38. The class given is functional, cell-based.

≈ marks a conversion by molar mass, not a printed value. Calls of active or inactive are those of the source. No cut-off for these calls is given here. Some results are limits rather than exact numbers.

As for `O=C1Nc2ccccc2[C@]12N1CSC[C@H]1[C@H](c1ccc(Br)cc1)[C@]21CCC/C(=C\c2ccc(Br)cc2)C1=O`, the values for the IC50 with MCF7 [1] and with K562 [2] were 15.3 µM and 14.7 µM, respectively.

`O=C(c1c(O)c2ccccc2[nH]c1=O)[C@@H]1[C@@H](c2ccccc2Cl)C(c2ccccc2)N[C@@]12C(=O)Nc1ccccc12` (some centres not stated): it took 7.1 µM to reach half-maximal inhibition in the experiment with HCT-116 [3] (IC50).

For `Cc1noc([C@H]2[C@H](c3ccc(Cl)cc3Cl)CN(C)[C@]23C(=O)Nc2ccc(Cl)cc23)c1[N+](=O)[O-]`, the IC50 – broadly, the concentration that inhibits the measured activity by half – worked out at 13.1 µM in the experiment with PC-3, 10.7 µM with K562 [4] and 21.5 µM with A549 [5].

`O=c1[nH]cc(F)c(=O)[nH]1` [FLUOROURACIL]: the IC50 with MGC-803 was found to be 7.6 µM; in the experiment with ECa-109 cell line it was 10.6 µM; in the experiment with SMMC-7721, 9.7 µM; in the experiment on MCF7 [1], 78.3 µM. Also, the ED25 with Ehrlich was found to be 40 microg/cm3.

With `CC1(C)S[C@@H]2[C@H](NC(=O)[C@H](N)c3ccccc3)C(=O)N2[C@H]1C(=O)O` [AMPICILLIN], the “diameter of the inhibition zone (DIZ)” value in the experiment with Escherichia coli [6] and in the experiment with Staphylococcus aureus [19] was 6 mm throughout. In addition, the MIC90 (in general, the lowest concentration that inhibits either 90% of growth or 90% of the strains tested, depending on the study) with Escherichia coli [7] was 1.46 µg/mL (≈ 4.18 µM); against Bacillus subtilis [10], 10.3 µg/mL (≈ 29.5 µM); against Staphylococcus aureus [12] it was 1 µg/mL (≈ 2.86 µM); in the experiment on Pseudomonas aeruginosa [16] it was 4.36 µg/mL (≈ 12.5 µM). Moreover, the MIC – broadly, the lowest concentration that inhibits growth of the organism – in the experiment on Pseudomonas aeruginosa [8] is 100 µg/mL (≈ 286 µM); in the experiment with Streptococcus pneumoniae, 0.015 µg/mL (≈ 0.0429 µM); against Bacillus subtilis [11] it was 250 µg/mL (≈ 715 µM); with Escherichia coli [13], 100 µg/mL (≈ 286 µM); in the experiment with Staphylococcus aureus [15] it was 250 µg/mL (≈ 715 µM); against Bacillus subtilis [20], 0.007 µg/mL (≈ 0.02 µM). Further, the MIC result with Escherichia coli [9], with Pseudomonas aeruginosa [14], in the experiment on Escherichia coli [17] and in the experiment on Pseudomonas aeruginosa [18] was “inactive” in each case.

For `O=C(c1c[nH]c2ccccc12)[C@@H]1[C@@H](c2ccc(C(F)(F)F)cc2)[C@@H]2CSCN2[C@@]12C(=O)Nc1ccccc12`, the IC50 in the experiment with HepG2 [21] was 5.5 µM; with PC-3, 6 µM; in the experiment on HCT-116 [22], 7 µM.

As for `CCOC(=O)C1=C(C(=O)OCC)C2(NC1CC(C)C)C(=O)Nc1ccccc12` (configuration not stated), the IC50 in the experiment on HeLa [23] was over 50 µM; in the experiment with MCF7 [24] it was 5 µM; in the experiment with A549 [25], 4.5 µM.

Take `CCOC(=O)C1=C(C(=O)OCC)C2(C(=O)Nc3ccccc32)N2CCCC12` (configuration not stated): the results for the IC50 in the experiment with HeLa [23], with MCF7 [24] and in the experiment with A549 [25] were 8.3 µM, 3.3 µM and 2 µM, respectively.

Consider `Cc1ccccc1/C=C1\CNC[C@@]2(C1=O)[C@@H](c1ccccc1C)C1CCCN1[C@]21C(=O)Nc2ccccc21` (some centres not stated), for which the half-maximal inhibitory concentration (IC50) was 35.8 µM with SK-OV-3 and 3.6 µM in the experiment on CCRF-CEM.

For the compound `CCOC(=O)C1=C(N)Oc2c(c(=O)oc3cc(Cl)ccc23)C12C(=O)Nc1ccc(C)cc12` (configuration not stated), it took 118 µM to reach half-maximal inhibition in [26] (IC50).

Take `COc1cccc2c1C(=O)c1c(O)c3c(c(O)c1C2=O)C[C@@](O)(C(=O)CO)C[C@@H]3O[C@H]1C[C@H](N)[C@H](O)[C@H](C)O1` [DOXORUBICIN]: the IC50 in the experiment with MDA-MB-435 was found to be 0.09 µM; with HCT-116 [3], 2.4 µM; with SK-N-SH it was 6.3 µM; in the experiment with DU-145 it was 1.8 µM; in the experiment with HepG2 [29], 5.4 µM. Besides, the figures for the “growth inhibition (GI)” value with HeLa [27], with MDA-MB-231 and in the experiment with HepG2 [28] were 76.1%, 76% and 79.1%, respectively.

Regarding `O=C1OC(c2ccccc2)=N[C@@]12[C@H](c1ccc(C(F)(F)F)cc1)[C@H]1CCCN1[C@]21C(=O)Nc2ccccc21`, the IC50 in the experiment “cells” came out at 7.2 µM; in the experiment with Huh-7, 7.9 µM.

As to `CC1(C)CC(=O)C2=C(C1)OC(N)=C(C#N)C21C(=O)N(CCCCCCCCCCBr)c2ccccc21` (configuration not stated), the concentration for half-maximal inhibition (IC50) in experiment [30] was determined as 2.5 µM.

Take `CN1C(=O)C2(SC[C@@H](C(=O)O)[C@@H]2C(=O)c2ccc(Cl)c(Cl)c2)c2ccccc21` (some centres not stated): the IC50 in the experiment on MCF7 [31] was 36.3 µM; in the experiment on WI-38, 55.1 µM.

The values are drawn from ChEMBL document CHEMBL5226286, “The application of isatin-based multicomponent-reactions in the quest for new bioactive and druglike molecules” (Eur J Med Chem, 2021).
